Laboratory results from US7449477B2, “7-phenyl-isoquinoline-5-sulfonylamino derivatives as inhibitors of akt (protein kinase B)” (Eli Lilly and Company, priority 2003, dated 2008).
pIC50: −log10 of the molar value. Structures can show the parent of a compound that is named as a salt.

What follows are molecules tested against T1, active human Akt1 (Homo sapiens, UniProt P31749) (assay: Akt1 Phosphorylation Assay (phosphocellulose filter-binding, 33P-Crosstide)). Settings: active human recombinant Akt1 (full-length) 10 nM; 12.5 μM Crosstide; 20 μM ATP; 30 minutes at room temperature.
T1 construct: Active human recombinant Akt1 (full-length) purified from Sf9 insect cells; purchased Upstate Biotechnology, Inc. 14-276; host or cells: Sf9 insect cells
Assay type: biochemical
Protocol: Akt1 Phosphorylation Assay
The assay described measures the phosphorylation of Crosstide by active human Akt1 and other Akt isoforms. Crosstide contains a consensus sequence derived from Akt substrates GSK3b and forkhead transcription factors (FKs). The ^33P-labeled Crosstide substrate is captured by phosphocellulose membrane filter plates.
Active human recombinant Akt1 (full-length) purified from Sf9 insect cells is from Upstate Biotechnology, Inc. (Cat. #14-276, 405 μg/ml). Crosstide substrate, NH2-GRPRTSSFAEG-COOH (M.W.1164) is purchased from Multiple Peptide System (Cat. # L59/GR145-153).
Solution (A): 20% DMSO (dimethylsulphoxide) or Compound in 20% DMSO; Solution (B): Assay Buffer Mix: 31.25 μM Crosstide, 37.5 mM MgCl2, 87.5 mM HEPES, pH 7.3, 50 μM ATP γ-^33P-ATP, 0.05 μCi/μl; Solution (C): Akt Kinase Mix: 31.25 mM HEPES, pH 7.3; 1 mM DTT, 25 nM UBI Akt1.
Procedure for Phosphocellulose Filter-Binding Assay
Ten μl of Solution (A) are first mixed with 20 μl Solution (B). The enzymatic reaction is initiated by adding 20 μl Solution (C) to the mixture. (Final concentration or amount in a 50-μl reaction mix: 4% DMSO or various compound concentration in 4% DMSO; 12.5 μM Crosstide; 15 mM MgCl2; 35 mM HEPES, pH7.3; 20 μM ATP; 1 μCi γ-^33P-ATP; 0.4 mM DTT; 10 nM UBI Akt1.) The reactions are performed in 96-well microtiter plates.
After 30 minutes at room temperature, the reaction is terminated by adding 80 μl of 10% H3PO4. An aliquot of 100 μl from each well is transferred to the phosphocellulose filter plate (Millipore MultiScreen, Catalog #MAPHN0B50). After 30 minutes, the reaction mix is filtered with a Millipore manifold following by 3 washes with 0.5% H3PO4. The filter is then vacuum-dried and the plate is fitted onto a Packard carrier. 100 μl/well Microscint20 are added and the contents are counted in a Packard Top Count.

T1 sequence (P31749 whole entry): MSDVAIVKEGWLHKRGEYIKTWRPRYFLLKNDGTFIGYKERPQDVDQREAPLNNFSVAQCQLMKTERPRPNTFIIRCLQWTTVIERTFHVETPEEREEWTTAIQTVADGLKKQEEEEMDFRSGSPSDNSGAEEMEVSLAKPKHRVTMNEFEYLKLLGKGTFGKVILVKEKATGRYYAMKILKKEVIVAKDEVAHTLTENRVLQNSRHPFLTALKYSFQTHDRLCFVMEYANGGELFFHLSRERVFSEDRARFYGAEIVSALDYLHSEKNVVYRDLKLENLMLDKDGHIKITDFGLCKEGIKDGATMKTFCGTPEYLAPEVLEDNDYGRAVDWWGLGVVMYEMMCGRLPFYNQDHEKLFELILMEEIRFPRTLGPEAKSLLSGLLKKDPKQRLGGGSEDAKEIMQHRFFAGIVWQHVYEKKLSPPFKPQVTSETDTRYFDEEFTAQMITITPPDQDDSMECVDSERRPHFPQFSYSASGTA

pIC50, ≥ 5.70:
Nc1ccc(-c2cc(S(=O)(=O)NCCNCCCc3ccc([N+](=O)[O-])cc3)c3ccncc3c2)cc1 [Example 90, 7-(4-aminophenyl)-isoquinoline-5-sulfonic acid [2-(3-(4-nitrophenyl)-propylamino)-ethyl]-amide, trihydrochloride salt]
O=[N+]([O-])c1ccc(CCCNCCNS(=O)(=O)c2cc(-c3ccccc3O)cc3cnccc23)cc1 [Example 91, 7-(2-hydroxy-phenyl)-isoquinoline-5-sulfonic acid {2-[3-(4-nitro-phenyl)-propylamino]-ethyl}-amide, dihydrochloride salt]
Nc1cccc(-c2cc(S(=O)(=O)NCCNCCCc3ccc([N+](=O)[O-])cc3)c3ccncc3c2)c1 [Example 92, 7-(3-aminophenyl)-isoquinoline-5-sulfonic acid [2-(3-(4-nitrophenyl)-propylamino)-ethyl]-amide, trihydrochloride salt]
O=[N+]([O-])c1ccc(CCCNCCNS(=O)(=O)c2cc(-c3cccc(F)c3)cc3cnccc23)cc1 [Example 93, 7-(3-fluorophenyl)-isoquinoline-5-sulfonic acid [2-(3-(4-nitrophenyl)-propylamino)-ethyl]-amide]
CS(=O)(=O)Nc1cccc(-c2cc(S(=O)(=O)NCCNCCCc3ccc([N+](=O)[O-])cc3)c3ccncc3c2)c1 [Example 94, 7-(3-methanesulfonylamino-phenyl)-isoquinoline-5-sulfonic acid {2-[3-(4-nitro-phenyl)-propylamino]-ethyl}-amide, dihydrochloride salt]
O=[N+]([O-])c1ccc(CCCNCCNS(=O)(=O)c2cc(-c3ccc(O)cc3)cc3cnccc23)cc1 [Example 98, 7-(4-hydroxy-phenyl)-isoquinoline-5-sulfonic acid {2-[3-(4-nitro-phenyl)-propylamino]-ethyl}-amide, dihydrochloride salt]
O=[N+]([O-])c1ccc(CCCNCCNS(=O)(=O)c2cc(-c3cccc(O)c3)cc3cnccc23)cc1 [Example 99, 7-(3-hydroxy-phenyl)-isoquinoline-5-sulfonic acid {2-[3-(4-nitro-phenyl)-propylamino]-ethyl}-amide, dihydrochloride salt]
CS(=O)(=O)c1ccc(CCCNCCNS(=O)(=O)c2cc(-c3ccccc3)cc3cnccc23)cc1 [Example 100, 7-Phenyl-isoquinoline-5-sulfonic acid {2-[3-(4-methanesulfonyl-phenyl)-propylamino]-ethyl}-amide, dihydrochloride salt]
O=[N+]([O-])c1cccc(CCCNCCNS(=O)(=O)c2cc(-c3ccccc3)cc3cnccc23)c1 [Example 101, 7-Phenyl-isoquinoline-5-sulfonic acid {2-[3-(3-nitro-phenyl)-propylamino]-ethyl}-amide, dihydrochloride salt]
O=S(=O)(NCCNCCCc1ccc(S(=O)(=O)C(F)(F)F)cc1)c1cc(-c2ccccc2)cc2cnccc12 [Example 102, 7-Phenyl-isoquinoline-5-sulfonic acid {2-[3-(4-trifluoromethanesulfonyl-phenyl)-propylamino]-ethyl}-amide, dihydrochloride salt]
CCc1cc([N+](=O)[O-])ccc1CCCNCCNS(=O)(=O)c1cc(-c2ccccc2)cc2cnccc12 [Example 103, 7-Phenyl-isoquinoline-5-sulfonic acid {2-[3-(2-ethyl-4-nitro-phenyl)-propylamino]-ethyl}-amide, dihydrochloride salt]
Cc1cc(C#N)ccc1CCCNCCNS(=O)(=O)c1cc(-c2ccccc2)cc2cnccc12 [Example 104, 7-Phenyl-isoquinoline-5-sulfonic acid {2-[3-(4-cyano-2-methyl-phenyl)-propylamino]-ethyl}-amide, dihydrochloride salt]
O=[N+]([O-])c1ccc(CCCNCCNS(=O)(=O)c2cc(-c3ccccc3)cc3cnccc23)cc1O [Example 105, 7-Phenyl-isoquinoline-5-sulfonic acid {2-[3-(3-hydroxy-4-nitro-phenyl)-propylamino]-ethyl}-amide, dihydrochloride salt]
N#Cc1ccc(CCCNCCNS(=O)(=O)c2cc(-c3ccccc3)cc3cnccc23)cc1O [Example 106, 7-Phenyl-isoquinoline-5-sulfonic acid {2-[3-(4-cyano-3-hydroxy-phenyl)-propylamino]-ethyl}-amide, bis-trifluoroacetate salt]
O=S(=O)(NCCNCCCc1cccc(O)c1)c1cc(-c2cccc(O)c2)cc2cnccc12 [Example 107, 7-(3-Hydroxy-phenyl)-isoquinoline-5-sulfonic acid {2-[3-(3-hydroxy-phenyl)-propylamino]-ethyl}-amide]
COc1ccc(CCCNCCNS(=O)(=O)c2cc(-c3ccc(O)cc3)cc3cnccc23)c(F)c1 [Example 108, 7-(4-Hydroxy-phenyl)-isoquinoline-5-sulfonic acid {2-[3-(2-fluoro-4-methoxy-phenyl)-propylamino]-ethyl}-amide]
O=S(=O)(NCCNCCCc1cccc(O)c1)c1cc(-c2ccc(O)cc2)cc2cnccc12 [Example 109, 7-(4-Hydroxy-phenyl)-isoquinoline-5-sulfonic acid {2-[3-(3-hydroxy-phenyl)-propylamino]-ethyl}-amide]
COc1ccc(CCCNCCNS(=O)(=O)c2cc(-c3cccc(O)c3)cc3cnccc23)c(F)c1 [Example 110, 7-(3-Hydroxy-phenyl)-isoquinoline-5-sulfonic acid {2-[3-(2-fluoro-4-methoxy-phenyl)-propylamino]-ethyl}-amide]
N#Cc1ccc(CC(O)CNCCNS(=O)(=O)c2cc(-c3ccccc3)cc3cnccc23)cc1 (stereo not drawn) [Example 111, 7-Phenyl-isoquinoline-5-sulfonic acid {2-[3-(4-cyano-phenyl)-2-hydroxy-propylamino]-ethyl}-amide, dihydrochloride salt, dihydrochloride salt, dihydrochloride salt, dihydrochloride …]
N#Cc1ccc(C(O)C(O)CNCCNS(=O)(=O)c2cc(-c3ccccc3)cc3cnccc23)cc1 (stereo not drawn) [Example 112, 7-Phenyl-isoquinoline-5-sulfonic acid {2-[3-(4-cyano-phenyl)-2,3-dihydroxy-propylamino]-ethyl}-amide, dihydrochloride salt]
O=S(=O)(NCCNCC(O)C(O)c1ccc(S(=O)(=O)C(F)(F)F)cc1)c1cc(-c2ccccc2)cc2cnccc12 (stereo not drawn) [Example 113, 7-Phenyl-isoquinoline-5-sulfonic acid {2-[2,3-dihydroxy-3-(4-trifuoromethanesulfonyl-phenyl)-propylamino]-ethyl}-amide, dihydrochloride salt]
